Assay results published in ChEMBL document CHEMBL1201862, “PubChem BioAssay data set” (2004).
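Growth conditions: 96-well plates. Treatment: test compound, 48 hours, 5 concentrations. Analysis: linear interpolation between bracketing concentrations; unreached endpoints set to highest concentration. GI50: concentration for 50% inhibition of growth.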 Calls of active or inactive are those of the source. Cut-off read from the data, not from the text of the source: active = GI50 up to about 1.1 µM and inactive = higher.

Key:
Test in all cases: DTP human tumour cell line panel, 48 h
786-0 = test system: 786-0
HL-60 = test system: HL-60
KM12 = test system: KM12
Malme-3M = test system: Malme-3M
NCI-H226 = test system: NCI-H226
NCI-H23 = test system: NCI-H23
OVCAR-3 = test system: OVCAR-3
OVCAR-5 = test system: OVCAR-5
RPMI-8226 = test system: RPMI-8226
SF-539 = test system: SF-539
SNB-75 = test system: SNB-75
SW-620 = test system: SW-620
TK-10 = test system: TK-10
UACC-257 = test system: UACC-257
UACC-62 = test system: UACC-62
UO-31 = test system: UO-31

Measured: GI50

CCN(CC)c1ccc(/N=N\c2ccc(-c3nc4ccc[n+](C)c4s3)cc2)cc1
inactive: 786-0 17.1 µM | HL-60 1.77 µM | KM12 2.76 µM | Malme-3M 6.11 µM | NCI-H226 6.5 µM | NCI-H23 5.5 µM | OVCAR-3 3.53 µM | OVCAR-5 17.1 µM | RPMI-8226 2.79 µM | SF-539 11 µM | SNB-75 9.4 µM | SW-620 4.75 µM | TK-10 20 µM | UACC-257 5.01 µM | UACC-62 7.59 µM | UO-31 22.8 µM

CC#N.O[C@@H]1CCCC[C@H]1O.O[C@@H]1CCCC[C@H]1O.[TeH2]
inactive: 786-0 48.8 µM | HL-60 14.6 µM | KM12 42.7 µM | Malme-3M > 100 µM | NCI-H226 46.1 µM | NCI-H23 20.8 µM | OVCAR-3 19.1 µM | OVCAR-5 23.8 µM | RPMI-8226 26.7 µM | SF-539 > 100 µM | SNB-75 > 100 µM | SW-620 16.7 µM | TK-10 > 100 µM | UACC-257 > 100 µM | UACC-62 82.2 µM | UO-31 47 µM

Cc1cccc(Cl)c1NC(N)=S
inactive: 786-0 20.2 µM | HL-60 38.4 µM | KM12 > 100 µM | Malme-3M 52 µM | NCI-H226 82.8 µM | NCI-H23 83 µM | OVCAR-3 26.4 µM | OVCAR-5 63.8 µM | RPMI-8226 19 µM | SF-539 33.7 µM | SNB-75 47.1 µM | SW-620 16.6 µM | TK-10 50.9 µM | UACC-257 > 100 µM | UACC-62 69.7 µM | UO-31 51.6 µM

CN(C)CCC1(C2=CCCC2)CC/C(=C\c2ccc3c(c2)OCO3)C1=O (centres undefined)
inactive: 786-0 14 µM | HL-60 14.3 µM | KM12 15.8 µM | Malme-3M 15.6 µM | NCI-H23 18.4 µM | OVCAR-3 15.8 µM | OVCAR-5 15.8 µM | RPMI-8226 23.7 µM | SF-539 16 µM | SW-620 15.8 µM | TK-10 15.8 µM | UACC-257 15.5 µM | UACC-62 21.5 µM | UO-31 7.52 µM

CCCCCCCC(=O)OC(COC(=O)Cc1ccccc1)COC(=O)C(C)(C)C (centres undefined)
inactive: 786-0 > 100 µM | HL-60 51.6 µM | Malme-3M > 100 µM | NCI-H226 > 100 µM | NCI-H23 > 100 µM | OVCAR-3 > 100 µM | OVCAR-5 > 100 µM | RPMI-8226 > 100 µM | SW-620 > 100 µM | TK-10 > 100 µM | UACC-62 > 100 µM | UO-31 > 100 µM

C#CCC[C@@H]1O[C@@]1(C)CC/C=C(\C)CC/C=C/C=O
inactive: 786-0 73.5 µM | HL-60 23.9 µM | KM12 36.9 µM | Malme-3M 20 µM | NCI-H226 60.3 µM | NCI-H23 29 µM | OVCAR-3 29.8 µM | OVCAR-5 > 100 µM | RPMI-8226 19.3 µM | SF-539 18.2 µM | SNB-75 42.6 µM | SW-620 23.3 µM | UACC-257 23.6 µM | UACC-62 17.9 µM | UO-31 35.8 µM

Cn1c(=O)c2nc3c4ccccc4c(=O)n(C)c3nc2n(C)c1=O
inactive: 786-0 > 100 µM | KM12 > 100 µM | Malme-3M > 100 µM | NCI-H226 > 100 µM | NCI-H23 > 100 µM | OVCAR-3 > 100 µM | OVCAR-5 > 100 µM | RPMI-8226 > 100 µM | SF-539 > 100 µM | SNB-75 > 100 µM | SW-620 > 100 µM | TK-10 > 100 µM | UACC-257 > 100 µM | UACC-62 > 100 µM | UO-31 > 100 µM

C=C(C)C(=O)OC1C/C(CO)=C\C(O)C/C(C)=C/C2OC(=O)C(=C)C21 (centres undefined)
inactive: 786-0 16 µM | KM12 19.2 µM | Malme-3M 20.6 µM | NCI-H226 27.8 µM | NCI-H23 > 10 µM | OVCAR-3 25.1 µM | OVCAR-5 45.8 µM | RPMI-8226 17.3 µM | SF-539 21 µM | SNB-75 32.4 µM | SW-620 16.7 µM | TK-10 21.1 µM | UACC-62 19.9 µM | UO-31 > 100 µM

O=S(=O)(c1ccccc1)c1nccs1
inactive: 786-0 > 100 µM | HL-60 > 100 µM | KM12 > 100 µM | NCI-H226 > 100 µM | NCI-H23 > 100 µM | OVCAR-3 > 100 µM | OVCAR-5 > 100 µM | RPMI-8226 > 100 µM | SF-539 > 100 µM | SNB-75 > 100 µM | SW-620 > 100 µM | TK-10 > 100 µM | UACC-257 > 100 µM | UACC-62 > 100 µM | UO-31 > 100 µM

Cn1cc(NC(=O)c2cc(NC(=O)CCCCCCCC(=O)Nc3cc(C(=O)Nc4cc(C(=O)NCCC(=N)N)n(C)c4)n(C)c3)cn2C)cc1C(=O)NCCC(=N)N
inactive: 786-0 34 µM | HL-60 3.15 µM | KM12 7.53 µM | Malme-3M 5.75 µM | NCI-H23 17.3 µM | OVCAR-3 32.1 µM | OVCAR-5 > 100 µM | SF-539 17.7 µM | SNB-75 35.2 µM | SW-620 32.7 µM | TK-10 15 µM | UACC-257 5.7 µM | UACC-62 15.7 µM | UO-31 > 100 µM

CCCCCCCCCCCCCCNCC(OC)OC
inactive: 786-0 16 µM | HL-60 5.25 µM | KM12 13.3 µM | Malme-3M 19.8 µM | NCI-H226 17.1 µM | NCI-H23 20.2 µM | OVCAR-3 17.3 µM | OVCAR-5 14.6 µM | SF-539 16.9 µM | SNB-75 13.8 µM | SW-620 16.1 µM | TK-10 17.4 µM | UACC-257 19.4 µM | UACC-62 19.6 µM | UO-31 12.8 µM

Cc1ccc2nc(/C(=C/c3ccc(/C=C(\NC(=O)c4ccccc4)c4nc5ccc(C)cc5[nH]4)c(C)c3)NC(=O)c3ccccc3)[nH]c2c1
inactive: 786-0 9.02 µM | KM12 17.1 µM | Malme-3M 7.29 µM | NCI-H226 26.4 µM | NCI-H23 19.7 µM | OVCAR-3 6.19 µM | OVCAR-5 19.6 µM | RPMI-8226 16.6 µM | SF-539 10.2 µM | SNB-75 7.08 µM | SW-620 5.92 µM | TK-10 47.1 µM | UACC-62 1.14 µM | UO-31 9.12 µM

O=c1cccccc1NCCOCCNc1cccccc1=O
inactive: 786-0 > 100 µM | HL-60 > 100 µM | KM12 > 100 µM | Malme-3M > 100 µM | NCI-H226 > 100 µM | NCI-H23 > 100 µM | OVCAR-3 > 100 µM | OVCAR-5 > 100 µM | RPMI-8226 > 100 µM | SNB-75 16.9 µM | SW-620 > 100 µM | TK-10 > 100 µM | UACC-257 > 100 µM | UACC-62 > 100 µM | UO-31 > 100 µM

COc1nc(N)c(C(=O)CCl)c(=O)n1C
inactive: HL-60 2.17 µM | KM12 14.3 µM | Malme-3M 10.5 µM | NCI-H226 4.5 µM | NCI-H23 > 10 µM | OVCAR-5 20.2 µM | RPMI-8226 2.71 µM | SF-539 18 µM | SNB-75 13.3 µM | SW-620 12.4 µM | TK-10 14.7 µM | UACC-257 11.5 µM | UO-31 22 µM
